Patent publication US12396997B2, “Methods of treatment with an iboga alkaloid” (priority 2022, dated 2025)
Where “and” joins values, the source holds several entries; their conditions need not be identical. Equal entries are not always repeated. Entries after “also recorded” stand apart in the source; their conditions may differ.

Tests used:
[1] = tested on: special operations veterans with history of TBI; test: World Health Organization Disability Assessment Scale 2.0 (WHODAS 2.0); assay type: in vivo, human; settings: for WHODAS 2.0 Subscale Self Care: baseline 5.2% ± 9.2%; for WHODAS 2.0 Subscale Mobility: baseline 14.7% ± 15.7%
Description: (§1) Thirty, male, navy seal or army special forces veterans, ages 33-58 years (mean 44.5 years), were enrolled. Of the 30 participants, 27 were Caucasian, 1 was Hispanic and 2 were Native American. Body mass index was between 17-35 kg/m^2.
(§2) With subjects in the fasting state, an intravenous infusion of 1 gram of magnesium sulfate was administered 1-2 hours prior to treatment. […] Medical staff (MD, RN, or EMT) were onsite at a ratio of at least 1 staff per 2 patients throughout treatment for monitoring and management, but no specific coaching or psychological support was provided during treatment.
(§3) Post treatment, each subject was assessed four days after treatment, one month after treatment, and, if willing, one year after treatment. The post-treatment assessments conducted at four days and at one month after treatment included neuropsychological testing, measures of PTSD, depression, anxiety, mystical experiences, functional imaging and EEG. Post-treatment assessments conducted at one year after treatment included PTSD, depression, and anxiety measures.
World Health Organization Disability Assessment Scale 2.0 (WHODAS 2.0) was used as a measure of function. WHODAS was used to assess the impact of health conditions across six life domains (cognition, mobility, self-care, interpersonal, life activities, and community participation) and it is sensitive to change over time (Gold, L. H., J. Am. Acad. Psychiatry Law 42, 9 (2014). Each item in the assessment is rated on a scale ranging from no problems to extreme problems (Üstün, T. B. et al., Measuring health and disability: Manual for WHO disability assessment schedule WHODAS 2.0. (World Health Organization, 2010)). To capture inter-individual variability in disability the WHODAS complex scoring method was used. Raw scores were converted to a metric ranging from 0 (no disability) to 100 (full disability), by calculating the ratio of the participant's score relative to the maximum possible score in each domain as well as to the total score (Id.). A score of 20%-39% was considered mild, 40%-59% was moderate, 60%-79% was moderate-severe and 80%-100% was severe. Scores from baseline were compared to scores from one-month post treatment.

[2] = tested on: special operations veterans with history of TBI; test: CAPS-5 (Clinician-administered PTSD Scale for DSM-5); assay type: in vivo, human
Description: as §1, §2
as §3, with “measures. […]” for “measures.”

[3] = tested on: special operations veterans with history of TBI; test: MADRS (Montgomery-Asberg Depression Rating Scale), incl. suicidal ideation item Q10; assay type: in vivo, human
Description: as §2, §3
MADRS testing provides an indication of depressive symptoms, CAPS-5 provides an indication of PTSD and SIGH-A provides an indication of anxiety. Collectively these overlap to provide indication of mood, concentration, sleep and tension.
The MADRS is a clinician-administered 10-item scale assessing the severity of depression symptoms. […] A total score of 0-6 indicates no depression, 7-19 mild depression, 20-34 moderate depression, 35-59 severe depression, and 60+ very severe depressive symptoms (Müller, M. J., J. Affect. Disord. 77, 255-260 (2003)).

[4] = tested on: special operations veterans with history of TBI; test: Hamilton Anxiety Rating Scale (HAM-A); assay type: in vivo, human
Description: as §1, §2
as §3, with “measures. […]” for “measures.”

[5] = tested on: special operations veterans with history of TBI; test: Safety monitoring during and after ibogaine treatment (adverse events, QTc by ECG); assay type: in vivo, human
Description: 12 participants (40%) were treated for headache. 7 (23%) for nausea. 3 (10%) for anxiety. 2 (7%) for hypertension, and 1 (3%) for insomnia.
as §2

[6] = tested on: special operations veterans with history of TBI; test: Structural T1w MRI (FreeSurfer) regional volume and cortical thickness; assay type: in vivo, human
Description: Structural imaging of the brain was also conducted on some of the subjects of Example 1. Gray matter constitutes about 40% of the brain and white matter constitutes about 60% of the brain. Gray matter contains most of the brain's neuronal cell nodes, it is fully developed once a person reaches their 20's and interprets sensor information from various parts of the body. White matter is made up of bundles which connect various gray matter areas, it develops throughout the 20's and peaks in middle age. Typical metrics analyzed in anatomical (T1-weighted. “T1w”) imaging include volume and/or shape of nuclei (e.g. caudate), volume and/or shape of ventricles of the brain, and cortical thickness (mm). These metrics can be used to study normal and abnormal neuroanatomy and are primarily used to quantify gray matter. A tool called FreeSurfer was applied to images for a T1w structural analysis (volume, cortical thickness) to adjust for bias, remove non-brain matter, segments by tissue, parcels the brain into standardized regions, and provides measurements of those regions. FreeSurfer measurements of whole brain volume, volume by tissue (gray, white, CSF), estimated intracranial volume (ICV), subcortical gray matter volume, cortical volume by region were done. […] In particular, analysis was done to determine if there was any loss in gray matter volume or cortical thickness, whether there was a loss in white matter volume or an increase in presence of white matter […].
The fMRI images were also inspected to determine the difference in volume in regional areas of the brain from baseline to one month after treatment. FIG. 8A is a bar graph showing the effect size of a change in volume in 47 brain regions indicated along the x-axis. […] The fMRI images were also inspected for whole brain thickness at baseline and one month after treatment. […] FIG. 8B is a bar graph showing the effect size of a cortical thickness change for the brain regions indicated along the x-axis, from baseline to one month after treatment. […] The right and left parahippocampal gyrus are involved in visuospatial processing, including scene perception, navigation, and emotional contextualization. The left orbitofrontal gyrus is involved in impulse control and reward valuation. The left insular cortex is associated with both the affective-perceptual and cognitive-evaluative forms of empathy, as well as awareness of hunger, pain and fatigue. The left entorhinal cortex is a widespread network hub for memory, navigation, and perception of time.

[7] = tested on: special operations veterans with history of TBI; test: Predicted brain age from MRI with brain age model; assay type: in vivo, human; settings: one-month post treatment; FIG. 9D
Excerpt: A predictive model of normal aging defined using machine learning in healthy individuals, based on magnetic resonance imaging-derived estimates of gray matter and white matter (Id.) was applied to the MRI images from the subjects enrolled in the study of Example 1. […] There was a significant reversal of brain age from baseline to one month after treatment. The mean decrease in brain age was 1.3 years (corrected p=0.03).
At baseline, the brain age estimate for the 24 subjects was 40.89 years. […] The average decrease in brain age from baseline one month after treatment was 1.4 years.

[8] = tested on: special operations veterans with history of TBI; settings: in vivo
[9] = tested on: N-methyl-D-aspartate, kappa and mu opioid, sigma-1 and -2, nicotinic acetylcholine, serotonin transporter, and dopamine transporter; settings: literature; cited from earlier work
[10] = tested on: brain-derived neurotrophic factor (BDNF) and glial cell line-derived neurotrophic factor (GDNF); settings: literature; cited from earlier work
cortical neuron = settings: in vitro; literature; cited from earlier work
[11] = orally administered to humans; cited from earlier work
people = settings: in vivo; cited from earlier work
[12] = effect size, Baseline vs One-Month
[13] = effect size, Baseline vs Post-Treatment
[14] = following treatment vs baseline

CCC1CC2CC3c4[nH]c5ccc(OC)cc5c4CCN(C2)C13 (stereo not drawn) [ibogaine]
WHODAS 2.0 Subscale Self Care ([1]; One-Month, mean, SD 2.9%): 1.0% ± | WHODAS 2.0 Subscale Mobility ([1]; One-Month, mean, SD 3.3%): 1.3% ± | WHODAS 2.0 Subscale Cognition ([1]; One-Month, mean, SD 7.9%, baseline 36.1% ± 14.6%): 5.0% ± | WHODAS 2.0 Subscale Interpersonal ([1]; One-Month, mean, SD 9.5%, baseline 32.3% ± 20.4): 4.8% ± | WHODAS 2.0 Subscale Community Participation ([1]; One-Month, mean, SD 13.1%, baseline 35.6% ± 21.1%): 5.9% ± | WHODAS 2.0 Subscale Life Activities ([1]; One-Month, mean, SD 16.2%, baseline 41.1% ± 24.8%): 9.1% ± | WHODAS 2.0 Subscale Self Care ([1]; Post-Treatment, mean, SD 4.7%): 1.9% ± | WHODAS 2.0 Subscale Mobility ([1]; Post-Treatment, mean, SD 13.5%): 7.2% ± | WHODAS 2.0 Subscale Mobility, D [1, 12]: 0.83 | WHODAS 2.0 Subscale Self Care, D [1, 12]: 0.51 | WHODAS 2.0 Subscale Cognition, D [1, 13]: 0.96 | WHODAS 2.0 Subscale Community Participation, D [1, 13]: 0.53 | WHODAS 2.0 Subscale Interpersonal, D [1, 13]: 0.60 | WHODAS 2.0 Subscale Life Activities, D [1, 13]: 0.48 | WHODAS 2.0 Subscale Mobility, D [1, 13]: 0.53 | WHODAS 2.0 Subscale Self Care, D [1, 13]: 0.37 | Cohen's D on clinician rated psychiatric assessments (PTSD) [2, 14]: > 2 | Remission rate for comorbid PTSD ([2]; secondary analyses): around 80% | Suicidal Ideation (MADR Q10), % Reporting ([3]; 1-mo. post, mild TBI, N 28, baseline 46%): 7% | Cohen's D on clinician rated psychiatric assessments (depression) [3, 14]: > 2 | Remission rate for comorbid depression ([3]; secondary analyses): around 80% | Cohen's D on clinician rated psychiatric assessments (anxiety) [4, 14]: > 2 | Remission rate for comorbid anxiety ([4]; secondary analyses): around 80% | Unexpected or serious treatment-emergent side effects / adverse events ([5]; 30 participants, oral ibogaine 12.1±1.2 mg/kg with iv magnesium sulfate, 1.2 mg/kg): no unexpected or serious treatment-emergent side effects; also recorded: no serious or unexpected adverse events | Concerning prolongation of QTc ([5]; continuous 5-lead ECG): no instances of a concerning prolongation of QTc | Participants treated for insomnia ([5]; during oneirogenic effects, 1 participant): 3% | Participants treated for hypertension ([5]; during oneirogenic effects, 2 participants): 7% | Participants treated for anxiety ([5]; during oneirogenic effects, 3 participants): 10% | Participants treated for nausea ([5]; during oneirogenic effects, 7 participants): 23% | Participants treated for headache ([5]; during oneirogenic effects, 12 participants): 40% | White matter hypointensities (corrected for cerebral white matter) ([6]; baseline vs. one month post treatment, two-tailed p = 0.0789): Two-tailed: no significant differences | Subcortical Gray Matter volume ([6]; baseline vs. one month post treatment, two-tailed p = 0.0949): Two-tailed: no significant differences | Total Gray Matter volume ([6]; baseline vs. one month post treatment, two-tailed p = 0.4755): Two-tailed: no significant differences | Cortical Gray Matter volume ([6]; baseline vs. one month post treatment, two-tailed p = 0.4847): Two-tailed: no significant differences | Right hemisphere mean thickness ([6]; one month after treatment vs baseline, two-tailed): no significant difference | Left hemisphere mean thickness ([6]; one month after treatment vs baseline, two-tailed p=0.7146): no significant difference | Estimated brain age compared to aiTBS [7]: reducing in estimated brain age | Declines across any performance domain [8]: No declines | Executive functioning effect size D [8]: 0.31-1.22 | Performance change in language (semantic fluency) [8]: No significant performance changes | Phonemic Fluency (D-KEFS Verbal Fluency) [8]: 64.0 ± 10.1 T score | Processing speed effect size D [8]: 0.97-1.34 | Reaction Time (CPT-3 Reaction Time) [8]: 44.1 ± 6.8 T score and 46.4 ± 8.1 T score | Slowing of reaction time effect size D [8]: 0.29-0.52 | Sustained Attention (CPT-3 Hit Reaction Time Block Change) [8]: 50.8 ± 7.9 T score and 51.2 ± 7.7 T score | Sustained attention accuracy (detection) effect size D [8]: 0.86-1.05 | Verbal Memory (HVLT-R) [8]: 49.0 ± 9.2 T score | Working Memory (WMI (WAIS-IV)) ([8]; iv): 57.0 ± 9.5 T score | Affinity for neurotransmitter receptors [9]: moderate-to-weak affinity | Transcription of neurotrophic factors BDNF and GDNF [10]: increases the transcription | Cortical neuron dendritic arbor complexity (cortical neuron): increases cortical neuron dendritic arbor complexity | half-life [11]: about 7.5 hours | People who may suffer cardiac arrest when treated (people): Approximately 1 in 300

CC[C@H]1CC2C[C@H]3c4[nH]c5ccc(O)cc5c4CCN(C2)C13 [noribogaine]
Affinity for neurotransmitter receptors [9]: moderate-to-weak affinity
